Data reported in patent US12172007B2, “Combination therapy of electric fields and an additional treatment for cancer and imaging” (University of Cincinnati, priority 2019, dated 2024).

How the values were obtained:
[1] = test system: non-small cell lung cancer (NSCLC); conditions: cited from earlier work
[2] = test system: HER2-negative breast cancer; conditions: phase I, cited from earlier work
[3] = Relaxivity of contrast agent at 7 T; format: physicochemical
Text: The use of a paramagnetic gadolinium chelate-loaded SapC-DOPS (Gd-DTPA-BSA/SapC-DOPS) vesicles as a targeted contrast agent for imaging glioblastoma multiforme tumors are also useful in the present invention. Gd-DTPA-BSA/SapC-DOPS vesicles and Gd-DTPA display a similar relaxivity of 3.32 and 2.80 (s·mM)−1, respectively, at 7 T. According to the in vivo experiments, the R1 values of the tumor before injection of Gd-DTPA-BSA/SapC-DOPS vesicles, sham injected brain, and contralateral normal brain were 0.4676±0.010 s−1, 0.5216±0.034 s−1, and 0.5596±0.003 s−1, respectively. […] At 24 h postinjection, the tumor R1 remained elevated (7.9±1.5%, P<0.05) compared with the normal and sham brains, but it was statistically similar to the controls (4.7±2.0%, p>0.05). […] At 4 h, 10 h, and 20 h, the increase in T1 relaxation time is higher in the sham normal brain compared with sham tumor. By 24 h postinjection, the T1-weighted signal is similar in both tissues.

relaxivity [3] [s/mM]	Molecule	overall survival, Bavituximab + docetaxel versus docetaxel alone ([1]; advanced, previously treated NSCLC, phase III)	overall survival versus placebo-treated patients ([1]; patients pre-treated with immune checkpoint inhibitors)	overall response rate ([2]; with paclitaxel as adjuvant therapy) [%]	tolerability ([2]; with paclitaxel)
	Bavituximab: chimeric monoclonal antibody that binds to PS	no significant difference	increased overall survival	85	well tolerated
2.80	O=C([O-])CN(CCN(CC(=O)[O-])CC(=O)O)CCN(CC(=O)[O-])CC(=O)O.[Gd+3] [Gd-DTPA]				
